Values of other authors in US20170327462A1, “(Z)-3,4,5-TRIMETHOXYSTYRYLBENZENESULFONAMIDES AS POTENTIAL ANTICANCER AGENTS” (COUNCIL OF SCIENTIFIC & INDUSTRIAL RESEARCH, priority 2014, published 2017).

System: tubulin
Details: binding at colchicine binding site; J. Med. Chem. 2008, 51, 6211; cited from earlier work

SMILES: COc1cc(/C=C\c2ccc(OC)c(N)c2)cc(OC)c1 [(Z)-5-(3,5-dimethoxystyryl)-2-methoxyaniline]
- inhibition of tubulin polymerization relative to CA-4: five times stronger than CA-4
